# Laboratory results from ChEMBL document CHEMBL1139928, “Selective and dual action orally active inhibitors of thrombin and factor Xa” (Bioorg Med Chem Lett, 2007).
# Experiments:
# [1] = Plasma clearance in Sprague-Dawley rat; type: ADME, organism-based
# [2] = Volume of distribution in Sprague-Dawley rat; type: ADME, organism-based; conditions: in vivo, read-out: Vdss
# [3] = Plasma clearance in Beagle dog; type: ADME, organism-based, Canis lupus familiaris
# [4] = Volume of distribution in Beagle dog; type: ADME, organism-based, Canis lupus familiaris; conditions: in vivo, read-out: Vdss
# [5] = Half life in Sprague-Dawley rat; type: ADME, organism-based; conditions: in vivo
# [6] = Oral bioavailability in Sprague-Dawley rat; type: ADME, organism-based; conditions: in vivo
# [7] = Half life in Beagle dog; type: ADME, organism-based, Canis lupus familiaris; conditions: in vivo
# [8] = Oral bioavailability in Beagle dog; type: ADME, organism-based, Canis lupus familiaris; conditions: in vivo
clearance [1],Vd [2],clearance [3],Vd [4],half-life [5],bioavailability [6],half-life [7],bioavailability [8],SMILES
0.48 L/h/kg,0.3 L/kg,0.276 L/h/kg,0.4 L/kg,,,,,C[C@@H](C(=O)N1CCOCC1)N1CC[C@H](NS(=O)(=O)/C=C/c2ccc(Cl)s2)C1=O [GW813893]
1.26 L/h/kg,0.4 L/kg,0.342 L/h/kg,0.3 L/kg,18 min,32%,36 min,48%,C/C(=C\S(=O)(=O)N[C@H]1CCN([C@@H](C)C(=O)N2CCOCC2)C1=O)c1ccc(Cl)s1
1.68 L/h/kg,0.8 L/kg,0.78 L/h/kg,0.5 L/kg,18 min,31%,30 min,38%,C[C@@H](C(=O)N1CCOCC1)N1CC[C@H](NS(=O)(=O)CCc2ccc(Cl)s2)C1=O
